According to ChEMBL document CHEMBL6134905, “Double Swords in One: Novel Selective PI3K/110β PROTAC Degraders for the Treatment of Multidrug-Resistant Cancer by Activating ERS and Inhibiting P-gp” (J Med Chem, 2025):
Active and inactive are the calls of the source. No cut-off for these calls is given here.

Assays:
[1] = target: T1, von Hippel-Lindau disease tumor suppressor/Phosphatidylinositol 4,5-bisphosphate 3-kinase catalytic subunit beta isoform (Homo sapiens, UniProt P42338+P40337); test: PROTAC activity at PI3K-p110beta/VHL in human A549/DDP cells assessed as induction of PI3K-p110beta degradation incubated for 24 hrs by Western blot analysis; type: cell-based; conditions: dose 0.04-50 µM
T1 sequence (P40337 whole entry, looked up, canonical isoform): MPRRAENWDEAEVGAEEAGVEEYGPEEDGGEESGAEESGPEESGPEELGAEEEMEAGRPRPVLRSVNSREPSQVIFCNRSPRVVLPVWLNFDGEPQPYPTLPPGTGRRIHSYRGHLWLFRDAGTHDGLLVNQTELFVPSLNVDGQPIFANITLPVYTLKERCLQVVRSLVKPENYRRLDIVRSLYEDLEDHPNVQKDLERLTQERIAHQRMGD
T1 sequence (P42338 whole entry, looked up, canonical isoform): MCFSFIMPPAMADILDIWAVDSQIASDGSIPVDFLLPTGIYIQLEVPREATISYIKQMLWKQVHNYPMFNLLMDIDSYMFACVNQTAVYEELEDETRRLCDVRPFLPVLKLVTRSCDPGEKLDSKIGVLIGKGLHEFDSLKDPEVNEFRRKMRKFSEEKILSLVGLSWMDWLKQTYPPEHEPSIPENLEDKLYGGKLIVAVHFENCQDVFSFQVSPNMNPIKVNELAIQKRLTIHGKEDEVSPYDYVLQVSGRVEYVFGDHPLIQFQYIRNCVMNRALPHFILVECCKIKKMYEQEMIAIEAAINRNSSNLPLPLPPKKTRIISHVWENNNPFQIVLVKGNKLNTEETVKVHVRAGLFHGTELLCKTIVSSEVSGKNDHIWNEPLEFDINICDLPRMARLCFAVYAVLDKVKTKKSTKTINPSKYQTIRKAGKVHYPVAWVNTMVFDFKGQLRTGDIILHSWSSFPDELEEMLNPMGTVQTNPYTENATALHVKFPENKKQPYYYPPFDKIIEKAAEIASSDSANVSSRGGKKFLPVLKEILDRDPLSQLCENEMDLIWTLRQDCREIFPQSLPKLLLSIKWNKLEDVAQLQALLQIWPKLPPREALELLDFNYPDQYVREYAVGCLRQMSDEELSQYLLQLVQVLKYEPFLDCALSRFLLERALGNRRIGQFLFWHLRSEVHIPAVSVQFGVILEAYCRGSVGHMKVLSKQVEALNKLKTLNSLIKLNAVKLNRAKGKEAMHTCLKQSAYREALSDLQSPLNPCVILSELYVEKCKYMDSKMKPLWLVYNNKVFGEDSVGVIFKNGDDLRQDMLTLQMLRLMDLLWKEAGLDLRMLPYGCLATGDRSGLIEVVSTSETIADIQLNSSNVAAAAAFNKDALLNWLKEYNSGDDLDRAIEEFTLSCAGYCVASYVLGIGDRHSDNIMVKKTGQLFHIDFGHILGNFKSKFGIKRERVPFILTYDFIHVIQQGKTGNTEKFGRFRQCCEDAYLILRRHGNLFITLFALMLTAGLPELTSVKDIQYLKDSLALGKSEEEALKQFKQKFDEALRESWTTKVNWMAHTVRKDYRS

[2] = target: T1, von Hippel-Lindau disease tumor suppressor/Phosphatidylinositol 4,5-bisphosphate 3-kinase catalytic subunit beta isoform; test: PROTAC activity at PI3K-p110beta/VHL in human MCF7/ADM cells assessed as reduction in PI3K-p110beta level incubated for 2 hrs by Western blot analysis; type: cell-based
[3] = target: T1, von Hippel-Lindau disease tumor suppressor/Phosphatidylinositol 4,5-bisphosphate 3-kinase catalytic subunit beta isoform; test: PROTAC activity at PI3K-p110beta/VHL in human A549/DDP cells assessed as reduction in PI3K-p110beta level incubated for 12 to 36 hrs hrs by Western blot analysis; type: cell-based; conditions: time 12-36 hrs
[4] = target: T1, von Hippel-Lindau disease tumor suppressor/Phosphatidylinositol 4,5-bisphosphate 3-kinase catalytic subunit beta isoform; test: PROTAC activity at PI3K-p110beta/VHL in human MCF7/ADM cells assessed as reduction in PI3K-p110beta level by Western blot analysis; type: cell-based; conditions: time <= 48.0 hrs
[5] = target: T1, von Hippel-Lindau disease tumor suppressor/Phosphatidylinositol 4,5-bisphosphate 3-kinase catalytic subunit beta isoform; test: PROTAC activity at PI3K-p110beta/VHL in human A549/DDP cells assessed as reduction in PI3K-p110beta level by Western blot analysis; type: cell-based; conditions: time <= 48.0 hrs
[6] = target: T1, von Hippel-Lindau disease tumor suppressor/Phosphatidylinositol 4,5-bisphosphate 3-kinase catalytic subunit beta isoform; test: PROTAC activity at PI3K-p110beta/VHL in human A549/DDP cells assessed as induction of PI3K-p110beta degradation at 25 uM measured for 24 hrs in presence of VHL ligand by Western blot analysis; type: cell-based
[7] = target: T1, von Hippel-Lindau disease tumor suppressor/Phosphatidylinositol 4,5-bisphosphate 3-kinase catalytic subunit beta isoform; test: PROTAC activity at PI3K-p110beta/VHL in human A549/DDP cells assessed as induction of PI3K-p110beta degradation at 25 uM measured for 24 hrs in presence of TGX221 by Western blot analysis; type: cell-based
[8] = tested on: MCF7/ADM; test: Upregulation of PTEN expression in human MCF7/ADM cells at 25 uM incubated for 24 hrs by Western blot analysis; type: functional, cell-based
[9] = tested on: A549/CDDP; test: Induction of apoptosis in human A549/DDP cells assessed as decrease in bcl-2 expression at 12.5 uM incubated for 24 hrs by Western blot analysis; type: functional, cell-based
[10] = tested on: A549/CDDP; test: Induction of apoptosis in human A549/DDP cells assessed as increase in caspase-3 expression at 12.5 uM incubated for 24 hrs by Western blot analysis; type: functional, cell-based
[11] = tested on: A549/CDDP; test: Induction of apoptosis in human A549/DDP cells assessed as increase in cleaved caspase-9 expression at 12.5 uM incubated for 24 hrs by Western blot analysis; type: functional, cell-based
[12] = tested on: MCF7/ADM; test: Induction of apoptosis in human MCF7/ADM cells assessed as increase in cleaved caspase-9 expression at 12.5 uM incubated for 24 hrs by Western blot analysis; type: functional, cell-based
[13] = tested on: MCF7/ADM; test: Induction of apoptosis in human MCF7/ADM cells assessed as increase in cleaved caspase-8 expression at 12.5 uM incubated for 24 hrs by Western blot analysis; type: functional, cell-based
[14] = tested on: MCF7/ADM; test: Induction of apoptosis in human MCF7/ADM cells assessed as increase in caspase-8 expression at 12.5 uM incubated for 24 hrs by Western blot analysis; type: functional, cell-based
[15] = tested on: A549/CDDP; test: Induction of apoptosis in human A549/DDP cells assessed as increase in caspase-8 expression at 12.5 uM incubated for 24 hrs by Western blot analysis; type: functional, cell-based
[16] = tested on: MCF7/ADM; test: Activation of unfolded protein response in human MCF7/ADM cells at 25 uM incubated for 24 hrs by PROTEOSTATR aggresome dye based fluorescent microscopy; type: functional, cell-based
[17] = tested on: A549/CDDP; test: Upregulation of PERK expression in human A549/DDP cells at 0.25 to 25 uM incubated for 24 hrs by Western blot analysis; type: functional, cell-based; conditions: dose 0.25-25 µM
[18] = tested on: MCF7/ADM; test: Upregulation of CHOP expression in human MCF7/ADM cells at 0.25 to 25 uM incubated for 24 hrs by Western blot analysis; type: functional, cell-based; conditions: dose 0.25-25 µM
[19] = tested on: MCF7/ADM; test: Upregulation of ATF6 expression in human MCF7/ADM cells at 0.25 to 25 uM incubated for 24 hrs by Western blot analysis; type: functional, cell-based; conditions: dose 0.25-25 µM
[20] = target: ATP-dependent translocase ABCB1 (Homo sapiens, UniProt P08183); test: Inhibition of P-gp in human MCF7/ADM cells assessed as increase in intracellular Rh123 accumulation at 6.25 to 25 uM incubated for 24 hrs by flow cytometry analysis; type: cell-based; conditions: dose 6.25-25 µM
Sequence of ATP-dependent translocase ABCB1 (P08183 whole entry): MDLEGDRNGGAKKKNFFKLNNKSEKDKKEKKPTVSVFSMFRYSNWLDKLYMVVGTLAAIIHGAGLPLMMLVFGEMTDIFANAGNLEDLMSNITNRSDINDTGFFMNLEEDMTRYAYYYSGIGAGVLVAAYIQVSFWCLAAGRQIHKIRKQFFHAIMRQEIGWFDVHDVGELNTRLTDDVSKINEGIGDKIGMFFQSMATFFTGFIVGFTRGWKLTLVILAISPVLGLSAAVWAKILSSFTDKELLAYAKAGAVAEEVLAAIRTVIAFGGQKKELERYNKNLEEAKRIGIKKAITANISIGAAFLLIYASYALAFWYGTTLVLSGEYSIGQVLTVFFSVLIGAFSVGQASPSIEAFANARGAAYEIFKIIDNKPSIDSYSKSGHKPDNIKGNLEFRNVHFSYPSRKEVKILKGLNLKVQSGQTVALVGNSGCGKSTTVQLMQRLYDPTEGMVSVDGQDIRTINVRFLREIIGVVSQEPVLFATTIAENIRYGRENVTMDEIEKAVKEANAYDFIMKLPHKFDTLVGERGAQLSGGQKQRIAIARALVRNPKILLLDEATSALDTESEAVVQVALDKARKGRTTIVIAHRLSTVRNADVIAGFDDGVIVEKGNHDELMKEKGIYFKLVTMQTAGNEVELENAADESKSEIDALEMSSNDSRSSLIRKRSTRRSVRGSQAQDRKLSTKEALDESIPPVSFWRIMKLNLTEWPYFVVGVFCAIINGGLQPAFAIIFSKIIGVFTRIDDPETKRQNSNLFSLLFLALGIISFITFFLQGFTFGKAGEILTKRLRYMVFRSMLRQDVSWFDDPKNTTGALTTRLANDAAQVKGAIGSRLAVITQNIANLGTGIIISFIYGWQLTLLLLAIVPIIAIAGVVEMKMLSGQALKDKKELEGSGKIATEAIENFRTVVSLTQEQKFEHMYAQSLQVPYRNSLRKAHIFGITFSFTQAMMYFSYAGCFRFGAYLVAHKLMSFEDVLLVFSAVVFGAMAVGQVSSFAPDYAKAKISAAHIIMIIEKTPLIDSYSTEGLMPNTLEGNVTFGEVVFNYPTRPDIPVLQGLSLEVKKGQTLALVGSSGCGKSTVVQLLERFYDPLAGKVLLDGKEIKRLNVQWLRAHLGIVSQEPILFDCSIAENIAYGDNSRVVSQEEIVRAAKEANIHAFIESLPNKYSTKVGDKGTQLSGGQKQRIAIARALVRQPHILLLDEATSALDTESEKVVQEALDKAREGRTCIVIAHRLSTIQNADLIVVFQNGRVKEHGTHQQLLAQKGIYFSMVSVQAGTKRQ

[21] = tested on: MCF7/ADM; test: Antitumor activity against human MCF7/ADM cells xenografted in BALB/c mouse assessed as downregulation of p110beta level in tumor at 50 mg/kg, ip; type: functional, organism-based
[22] = tested on: MCF7/ADM; test: Antitumor activity against human MCF7/ADM cells xenografted in BALB/c mouse assessed as downregulation of p110alpha level in tumor at 50 mg/kg, ip; type: functional, organism-based
[23] = tested on: MCF7/ADM; test: Antitumor activity against human MCF7/ADM cells xenografted in BALB/c mouse assessed as increase in ATF6 expression in tumor at 50 mg/kg, ip by Western blot analysis; type: functional, organism-based
[24] = tested on: MCF7/ADM; test: Antitumor activity against human MCF7/ADM cells xenografted in BALB/c mouse assessed as increase in GRP78 expression in tumor at 50 mg/kg, ip by Western blot analysis; type: functional, organism-based
[25] = tested on: MCF7/ADM; test: Antitumor activity against human MCF7/ADM cells xenografted in BALB/c mouse assessed as increase in pIRE1 expression in tumor at 50 mg/kg, ip by Western blot analysis; type: functional, organism-based
[26] = tested on: MCF7/ADM; test: Antitumor activity against human MCF7/ADM cells xenografted in BALB/c mouse assessed as decrease in bcl-2 expression in tumor at 50 mg/kg, ip by Western blot analysis; type: functional, organism-based
[27] = tested on: MCF7/ADM; test: Antitumor activity against human MCF7/ADM cells xenografted in BALB/c mouse assessed as decrease in cleaved caspase-8 expression in tumor at 50 mg/kg, ip by Western blot analysis; type: functional, organism-based
[28] = tested on: MCF7/ADM; test: Antitumor activity against human MCF7/ADM cells xenografted in BALB/c mouse assessed as increase in bax expression in tumor at 50 mg/kg, ip by Western blot analysis; type: functional, organism-based
[29] = tested on: MCF7/ADM; test: Antitumor activity against human MCF7/ADM cells xenografted in BALB/c mouse assessed as reduction in AKT expression in tumor at 50 mg/kg, ip by Western blot analysis; type: functional, organism-based
[30] = tested on: MCF7/ADM; test: Antitumor activity against human MCF7/ADM cells xenografted in BALB/c mouse assessed as reduction in p-gp expression in tumor at 50 mg/kg, ip by Western blot analysis; type: functional, organism-based
[31] = Toxicity in BALB/c mouse xenografted with human MCF7/ADM cells assessed as liver damage at 50 mg/kg, ip by H and E staining based analysis; type: organism-based; conditions: in vivo
[32] = Toxicity in BALB/c mouse xenografted with human MCF7/ADM cells assessed as kidney damage at 50 mg/kg, ip by H and E staining based analysis; type: organism-based; conditions: in vivo
[33] = Toxicity in BALB/c mouse xenografted with human MCF7/ADM cells assessed as change in WBC count at 50 mg/kg, ip; type: organism-based; conditions: in vivo
[34] = Toxicity in BALB/c mouse xenografted with human MCF7/ADM cells assessed as change in platelet count at 50 mg/kg, ip; type: organism-based; conditions: in vivo
[35] = Toxicity in BALB/c mouse xenografted with human MCF7/ADM cells assessed as change in BUN level at 50 mg/kg, ip; type: organism-based; conditions: in vivo

Structure (SMILES)	Activity [1]	Activity [2]	Activity [3]	Activity [4]	Activity [5]	Activity [6]	Activity [7]	Activity [8]	Activity [9]	Activity [10]	Activity [11]	Activity [12]	Activity [13]	Activity [14]	Activity [15]	Activity [16]	Activity [17]	Activity [18]	Activity [19]	inhibition (INH) [20]	also measured
Cc1cc(C(C)Nc2ccccc2C(=O)NCCCCCCC(=O)N[C@H](C(=O)N2C[C@H](O)C[C@H]2C(=O)NCc2ccc(-c3scnc3C)cc2)C(C)(C)C)c2nc(N3CCOCC3)cc(=O)n2c1 (stereo not given in full)	Dose-dependent-effect	Active	Active	Time-dependent-effect	Time-dependent-effect	Active	inactive	Active	Active	Active	Active	Active	Active	Active	Active	Active	Active	Active	Active	Active	Activity [21]: Active; Activity [22]: Active; Activity [23]: Active; Activity [24]: Active; Activity [25]: Active; Activity [26]: Active; Activity [27]: Active; Activity [28]: Active; Activity [29]: Active; Activity [30]: Active; Activity [31]: Non-toxic; Activity [32]: Non-toxic; Activity [33]: Non-toxic; Activity [34]: Non-toxic; Activity [35]: Non-toxic
Cc1cc(C(C)Nc2ccccc2C(=O)NCCOCCOCCC(=O)N[C@H](C(=O)N2C[C@H](O)C[C@H]2C(=O)NCc2ccc(-c3scnc3C)cc2)C(C)(C)C)c2nc(N3CCOCC3)cc(=O)n2c1 (stereo not given in full)	Dose-dependent-effect	Active	Active	Time-dependent-effect	Time-dependent-effect	Active	inactive	Active	Active	Active	Active	Active	Active	Active	Active	Active	Active	Active	Active	Active	Activity [21]: Active; Activity [22]: Active; Activity [23]: Active; Activity [24]: Active; Activity [25]: Active; Activity [26]: Active; Activity [27]: Active; Activity [28]: Active; Activity [29]: Active; Activity [30]: Active; Activity [31]: Non-toxic; Activity [32]: Non-toxic; Activity [33]: Non-toxic; Activity [34]: Non-toxic; Activity [35]: Non-toxic
